# Measured values from patent US20190233442A1, “SELECTIVE ESTROGEN RECEPTOR DOWN-REGULATORS (SERDS)” (Xavier University of Louisiana, priority 2016, published 2019).
# Experiments:
# [1] = tested on: MCF-7/TamR; assay: Cytotoxicity in breast cancer cell lines (MCF-7/TamR); format: cell-based; conditions: MCF-7/TamR cells
# [2] = tested on: T47D/PKCα; assay: Cytotoxicity in breast cancer cell lines (T47D/PKCα); format: cell-based; conditions: T47D/PKCα cells
# [3] = tested on: MCF-7; assay: Cytotoxicity in breast cancer cell lines (MCF-7); format: cell-based; conditions: MCF-7 cells
# [4] = tested on: BT474; assay: Cytotoxicity in breast cancer cell lines (BT474); format: cell-based; conditions: BT474 cells
# [5] = target: T1, estrogen receptor α (ERα) (Homo sapiens, UniProt P03372); assay: Western blot of ER protein expression (down-regulation); format: cell-based
# T1 construct: endogenous in cells; host or cells: MCF-7
# T1 sequence (P03372 1-595): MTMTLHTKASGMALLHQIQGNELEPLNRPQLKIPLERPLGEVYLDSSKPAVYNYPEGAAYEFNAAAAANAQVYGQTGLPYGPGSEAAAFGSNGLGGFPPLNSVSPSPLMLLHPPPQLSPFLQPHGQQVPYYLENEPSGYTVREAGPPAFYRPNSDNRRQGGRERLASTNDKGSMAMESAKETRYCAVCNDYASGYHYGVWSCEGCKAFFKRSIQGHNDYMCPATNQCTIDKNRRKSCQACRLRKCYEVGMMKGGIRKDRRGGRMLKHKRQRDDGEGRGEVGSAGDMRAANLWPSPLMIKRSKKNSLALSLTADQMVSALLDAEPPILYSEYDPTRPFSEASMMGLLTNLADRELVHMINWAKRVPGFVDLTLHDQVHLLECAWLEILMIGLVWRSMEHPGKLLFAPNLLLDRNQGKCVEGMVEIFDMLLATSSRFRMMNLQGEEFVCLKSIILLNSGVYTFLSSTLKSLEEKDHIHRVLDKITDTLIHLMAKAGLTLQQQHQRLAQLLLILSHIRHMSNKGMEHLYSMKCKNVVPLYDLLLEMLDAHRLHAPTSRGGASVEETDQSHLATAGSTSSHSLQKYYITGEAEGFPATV
# [6] = cited from earlier work
# [7] = target: T1, estrogen receptor α (ERα); assay: Binding to estrogen receptor α; conditions: FIG. 15
"ER protein expression ([5]; FIG. 14, cell line not stated)",binding to estrogen receptor α (ERα) [7],Compound,"IC50 ([1]; Homo sapiens, MCF7) [nM]","IC50 ([3]; Homo sapiens, MCF7) [nM]",IC50 ([2]; Homo sapiens) [nM],"IC50 ([4]; Homo sapiens, BT-474) [nM]",other results
,,4-Hydroxytamoxifen [reference compound],,,,,IC50 [1]: 21100 nM; IC50 [2]: 540 nM; IC50 [3]: 3.3 nM; IC50 [4]: 1430 nM
dramatically downregulated,,C[C@]12CC[C@@H]3c4ccc(O)cc4C[C@@H](CCCCCCCCC[S+]([O-])CCCC(F)(F)C(F)(F)F)[C@H]3[C@@H]1CC[C@@H]2O (some centres unmarked) [Fulvestrant],,,,,"peak blood concentration ([6]; higher dose of 500 mg, FINDER1 and FINDER2 clinical trials): < 25 ng/mL; time to reach steady state concentration in patient plasma ([6]; higher dose of 500 mg): 1 month; bioavailability if administered orally ([6]; oral): very poor bioavailability; time to reach steady state serum concentration ([6]; standard intramuscular (i.m.) injection): 3-4 months"
,high affinity,CCC(=C(c1ccc(/C=C/C(=O)O)cc1)c1ccc(B(O)O)cc1)c1ccccc1 [SERD 4],1200,1800,,,"ER protein expression ([5]; MCF-7 cells, FIG. 13): dramatically downregulated"
,,CC/C(=C(\c1ccc(/C=C/C(=O)O)cc1)c1ccc(B2OC(C)(C)C(C)(C)O2)cc1)c1ccccc1 [SERD 6],4530,7730,6540,80500,
dramatically downregulated,high affinity,C[C@]12CC[C@@H]3c4ccc(B(O)O)cc4C[C@@H](CCCCCCCCC[S+]([O-])CCCC(F)(F)C(F)(F)F)[C@H]3[C@@H]1CC[C@@H]2O (some centres unmarked) [SERD 9],44,3.2,370,390,
